A short description of data set [1]: method code SF, from DOI: 10.1248/cpb.39.1346, PMID: 1914012.
The nature of data set [2]: method code SF-RC, from DOI: 10.1023/a:1015892313856, PMID: 1495896.
Data set [3] is described as follows: method code SF-AS, from DOI: 10.1021/jf60220a002.
Assay in data set [4]: not given
This is another data set of the same source.

A short description of data set [5]: method code SF-HPLC, from DOI: 10.1002/jps.10072, PMID: 11920751. The following applies: pH 7.4.
Data set [6] can be described thus: method code SF-HPLC, from DOI: 10.1016/0378-5173(88)90064-6. The following applies: pH 7.4.
Assay in data set [7]: not given
The source holds these as a separate data set.

A short description of data set [8]: method code SF-AS, from DOI: 10.1002/jps.2600611027, PMID: 5072421.
Assay in data set [9]: not given
The source holds these as a separate data set.

Data set [10] in a line: method code SF-NMR, from DOI: 10.1021/jm00157a023, PMID: 3806574.
Data set [11] can be described thus: method code SF, from DOI: 10.1016/0223-5234(94)90060-4. The following applies: pH 7.4.
A short description of data set [12]: method code SF, from DOI: 10.1021/jm200015a, PMID: 21630666. The following applies: pH 7.4.
The nature of data set [13]: method code SF-HPLC, from Yu, G.; Xu, X. (1993). Determination of the 1-octanol/water partition coefficient of nitro-PAHs. Huanjing Huaxue, 12(4)299-303.
Data set [14] can be described thus: method code SF-AS, from DOI: 10.1016/0006-2952(93)90433-w, PMID: 8494536. The note with it: pH 7.4.
Assay in data set [15]: not given
This is another data set of the same source.

Assay in data set [16]: not given
The source holds these as a separate data set.

Assay in data set [17]: not given
This is another data set of the same source.

Assay in data set [18]: not given
This is another data set of the same source.

Assay in data set [19]: not given
The source holds these as a separate data set.

Assay in data set [20]: not given
This is another data set of the same source.

Assay in data set [21]: not given
This is another data set of the same source.

Assay in data set [22]: not given
The source holds these as a separate data set.

Data set [23] in a line: method code SF-AS, from DOI: 10.1021/es00012a023, PMID: 22148214.
Data set [24] in a line: method code SF, from DOI: 10.3109/00498258709043934, PMID: 3564538.

72 compounds from the SangsterLogP compilation can be followed below.

Peptide text beside a SMILES is read from it. * marks the point of attachment. NHtBu = CC(C)(C)N*

As a reminder, the logP is a log measure of how a compound divides between an organic and an aqueous phase. Low values mean lower lipophilicity, high ones higher lipophilicity. What is called logD is lipophilicity at a set pH, counting ionised and neutral species. High values mean higher lipophilicity, low ones lower lipophilicity.

In data set [1], `CC1(C)[C@@H](O[C@H]2O[C@H](C(=O)O)[C@@H](O)[C@H](O)[C@H]2O[C@@H]2O[C@H](C(=O)O)[C@@H](O)[C@H](O)[C@H]2O)CC[C@@]2(C)[C@@H]3C(=O)C=C4[C@H]5C[C@@](C)(C(=O)O)CC[C@@]5(C)CC[C@@]4(C)C3(C)CC[C@@H]12` (some centres not stated) yielded a logP of 2.8.

As for `Cc1cccc2ccccc12`, the log partition coefficient (logP) turned out to be 3.87.

In [2] (pH 7.2), `CC(=O)N[C@@H](C)C(=O)NCC(=O)NC(C)(C)C` yielded a log distribution coefficient (logD) of -0.6.

Compound `CCNP(=O)(OCC)ON=C(C#N)c1ccc([N+](=O)[O-])cc1` (configuration not stated) displayed a logP in data set [3] of 1.76.

`Cc1cc2ccccc2cc1C` showed a log partition coefficient (logP) of 4.4.

`S=c1ssc2c1CCCCCCCCCCCCC2`: the lipophilicity (logP) in [4] turned out to be 7.18.

As to `CCCCC(=O)OCC(CO)OCn1cnc2c(=O)[nH]c(N)nc21` (configuration not stated), in data set [5], the log distribution coefficient (logD) was -0.07.

`CC(=O)c1ccc2cc(C(C)C(=O)OCC(=O)N(C)CCO)ccc2c1` (configuration not stated) displayed a logD in data set [6] of 2.01.

Compound `COc1ccc(C(C(=O)O)C(C)C)cc1` (configuration not stated) came in with a log partition coefficient (logP) in data set [7] of 2.5.

For the compound `CCCCCCc1ccncc1`, the lipophilicity (logP) in data set [8] was 4.35.

As to `CC(=O)OC[C@H]1O[C@@H](n2cc(C)c(=O)[nH]c2=O)C[C@@H]1N=[N+]=[N-]`, the log partition coefficient (logP) in [9] was 0.45.

The compound `O=P(N1CCOCCOCCOCCOCC1)(N1CC1)N1CC1` registered a logP in data set [10] of 0.12.

`CC(=O)OCC1OC(n2ccc(N)nc2=O)CS1` (configuration not stated): the pH-dependent lipophilicity (logD) in data set [11] was determined as 0.51.

Take `O=c1c2c([nH]c3ccc(Br)cc13)CCSC2`: the pH-dependent lipophilicity (logD) in data set [12] came out at 0.9.

For `O=[N+]([O-])c1c2ccccc2cc2ccccc12`, the logP in data set [13] came to 4.21.

In the case of `CS(=O)CCCOc1ccc2ccccc2c1` (configuration not stated), the logD in [14] came to 2.42.

Take `O=[N+]([O-])c1ccc2ccc3cccc4ccc1c2c34`: the lipophilicity (logP) in [13] stood at 5.06.

In data set [15], `Clc1cc2c(oc3cc(Cl)c(Cl)c(Cl)c32)c(Cl)c1Cl` returned a log partition coefficient (logP) of 6.6.

In data set [16], `Clc1cc2oc3cc(Cl)c(Cl)c(Cl)c3c2c(Cl)c1Cl` gave a lipophilicity (logP) of 7.57.

On to `O=[N+]([O-])c1cccc(-c2ccccc2)c1`, for which, in [13], the logP amounted to 3.69.

In data set [17], `Cc1cn([C@H]2C[C@H](O)[C@@H](CO)O2)c(=O)[nH]c1=O` returned a log partition coefficient (logP) of -1.04.

`CC1=C(C)C(O)N(c2cccc(N)c2)C1=O` (configuration not stated) showed a logP in [18] of 0.51.

The compound `COC(=O)C(C)Oc1ccc(Oc2ncc(C(F)(F)F)cc2Cl)cc1` (configuration not stated) returned a logP in [19] of 4.07.

In the case of `CC(=O)OCC1OC(n2ccc(N)nc2=O)C(O)C1O` (configuration not stated), the lipophilicity (logP) in data set [9] was -1.25.

In data set [20], `O=S(=O)(Nc1ccc(Cl)cc1)c1cc(Cl)cc(Cl)c1O` registered a logP of 3.66.

As to `CCOCCOCCOP(=O)(N1CC1(C)C)N1CC1(C)C` (configuration not stated), the logP in data set [10] came out at 0.22.

Compound `Brc1ccc(-c2cc(Br)ccc2Br)c(Br)c1` yielded a logP in data set [21] of 6.49.

Regarding `CCc1ccc2ccccc2c1`, the logP stood at 4.38.

On to `CCCN(CCCl)c1c([N+](=O)[O-])cc(C(F)(F)F)cc1[N+](=O)[O-]`, for which the log partition coefficient (logP) in data set [19] amounted to 4.63.

`CC(=O)OCC(CO)OCn1cnc2c(=O)[nH]c(N)nc21` (configuration not stated) displayed a pH-dependent lipophilicity (logD) in [5] of -1.08.

The compound `Brc1c(Br)c(Br)c(Oc2c(Br)c(Br)c(Br)c(Br)c2Br)c(Br)c1Br` yielded a logP in data set [21] of 9.56.

Compound `Cc1cn(C2CC(N=[N+]=[N-])C(COC(=O)C(=O)NC(Cc3ccccc3)C(=O)O)O2)c(=O)[nH]c1=O` (configuration not stated) displayed a lipophilicity (logP) in data set [17] of 1.2.

Consider `CCCCCCCCC1(c2ccncc2)CCC(=O)NC1=O` (configuration not stated), for which the logP in data set [22] stood at 4.04.

The compound `CC12CCC(c3c1ssc3=S)C2(C)C` (configuration not stated) showed a logP in data set [4] of 3.7.

Take `Cc1ccc2cc3ccccc3cc2c1`: the log distribution coefficient (logD) in [14] is 5.

In [23], `CC(C)OC(=O)CS(=O)c1ccc(Cl)cc1[N+](=O)[O-]` (configuration not stated) showed a logP of 2.22.

In data set [22], `CC1(c2ccncc2)CCC(=O)NC1=O` (configuration not stated) registered a logP of 0.07.

Take `CC(C=CC1=C(C)CCCC1(C)C)=CC=CC(C)=CC(=O)Nc1ccn(C2CSC(CO)O2)c(=O)n1` (configuration not stated): the log distribution coefficient (logD) in data set [11] turned out to be 1.23.

For `CC1=C(C)C(O)N(c2ccc(C(F)(F)F)cc2)C1=O` (configuration not stated), the logP in [18] was found to be 3.13.

In the case of `Clc1cc2oc3c(Cl)c(Cl)c(Cl)c(Cl)c3c2cc1Cl`, the log partition coefficient (logP) in [15] was determined as 6.6.

The compound `CC(C)OC(=O)CSc1ccccc1[N+](=O)[O-]` gave a lipophilicity (logP) in data set [23] of 2.76.

Take `CCOCCOCCOP(=O)(N1CC1)N1CC1`: the lipophilicity (logP) in data set [10] is 0.1.

On to `O=[N+]([O-])c1cccc(O[C@@H]2O[C@H](CO)[C@@H](O)[C@H](O)[C@H]2O)c1`, for which, in data set [1], the logP was -0.46.

In turn, `CC(C)C(C(=O)O)c1ccc(Cl)cc1` (configuration not stated) displayed a logP in [7] of 3.38.

`O=S(=O)(Nc1ccccc1)c1c(O)c(Cl)cc(Cl)c1Cl` returned a logP in data set [20] of 3.74.

`O=c1c2c([nH]c3cc(-c4ccc(-c5ccc(OC(F)(F)F)cc5)cc4)ccc13)CCCC2` yielded a logD in data set [12] of 3.8.

In turn, `O=C(O)c1cc(Oc2ccc(C(F)(F)F)cc2Cl)ccc1[N+](=O)[O-]` showed a logP in data set [19] of 4.26.

In data set [9], `Cc1cn(C2CC(N=[N+]=[N-])C(COC(=O)c3ccncc3)O2)c(=O)[nH]c1=O` (configuration not stated) displayed a logP of 0.8.

On to `Clc1cc(Cl)c2oc3c(Cl)cc(Cl)c(Cl)c3c2c1Cl`, for which, in data set [16], the lipophilicity (logP) turned out to be 7.65.

The compound `Cc1cc(-c2ccc(OC(F)(F)F)cc2)ccc1-c1ccc2[nH]c3c(c(=O)c2c1)CSCC3` displayed a pH-dependent lipophilicity (logD) in data set [12] of 3.6.

In the case of `CC1=C(C)C(O)N(c2ccc(C(F)(F)F)c(Cl)c2)C1=O` (configuration not stated), the log partition coefficient (logP) in data set [18] amounted to 3.53.

`Clc1cc(Cl)c2oc3c(Cl)c(Cl)c(Cl)c(Cl)c3c2c1` gave a lipophilicity (logP) in data set [16] of 7.58.

In data set [6], `CN(CCO)C(=O)COC(=O)c1ccccc1O` gave a log distribution coefficient (logD) of 0.86.

In the case of `Brc1cc(Br)c(-c2cc(Br)ccc2Br)c(Br)c1`, in data set [21], the lipophilicity (logP) is 6.89.

As for `CC(=O)NC(C)C(=O)NC(CCC(N)=O)C(=O)NC(C)C(=O)NC(C)(C)C` (stereo not drawn) (Ac-Ala-Gln-Ala-NHtBu; configuration not given here), the pH-dependent lipophilicity (logD) in data set [2] (pH 2.0) was -0.67.

`CC(C)C(C(=O)O)c1ccc(OC(F)F)cc1` (configuration not stated): the logP in [7] came out at 3.03.

As for `CC(=O)c1ccc2cc(C(C)C(=O)OCC(=O)N(C)C)ccc2c1` (configuration not stated), in data set [6], the logD amounted to 2.05.

`CC(C)OC(=O)CS(=O)c1ccc([N+](=O)[O-])cc1` (configuration not stated): in [23], the logP amounted to 1.64.

In [5], `CCC(=O)OCC(CO)OCn1cnc2c(=O)[nH]c(N)nc21` (configuration not stated) registered a logD of -0.92.

Take `CCOP(=O)(NC)O/N=C(/C#N)c1ccc(Cl)cc1` (configuration not stated): in [3], the log partition coefficient (logP) stood at 2.5.

The compound `CCCCCc1ccncc1` gave a logP in data set [8] of 3.75.

For the compound `CCCCCCCc1ccncc1`, in data set [8], the logP is 5.

`CCNP(=O)(OCC)O/N=C(/C#N)c1ccc(OC)cc1` (configuration not stated) returned a log partition coefficient (logP) in [3] of 2.39.

For `CCCCCCC1(c2ccncc2)CCC(=O)NC1=O` (configuration not stated), in data set [22], the log partition coefficient (logP) came out at 2.85.

As to `CC(=O)NC(C)C(=O)NC(CC(=O)O)C(=O)NC(C)(C)C` (stereo not drawn) (Ac-Ala-Asp-NHtBu; configuration not given here), in data set [2] (pH 2.0), the logD is -0.74.

Compound `CCC(C)C(NC(=O)C(=O)OCC1OC(n2cc(C)c(=O)[nH]c2=O)CC1N=[N+]=[N-])C(=O)O` (configuration not stated) came in with a logP in [17] of 1.15.

For `Clc1cc2c(c(Cl)c1Cl)Oc1cc(Cl)c(Cl)c(Cl)c1O2`, the logP in data set [15] worked out at 7.8.

For `CS(=O)(=O)c1cccc2ccccc12`, the pH-dependent lipophilicity (logD) in data set [14] was found to be 1.74.

Turning to `Cc1ccccc1NS(=O)(=O)c1c(O)c(Cl)cc(Cl)c1Cl`, the logP in data set [20] was determined as 4.02.

Take `S=c1ssc(-c2ccccc2)c1-c1ccccc1`: the logP in data set [4] was 4.2.

As to `CC(C=CC1=C(C)CCCC1(C)C)=CC=CC(C)=CC(=O)OCC1OC(n2ccc(N)nc2=O)CS1` (configuration not stated), the log distribution coefficient (logD) in [11] is 1.24.

The compound `CCOC(=O)C(C(=O)CC)=C1SC=CS1` came in with a logP in data set [24] of 2.9.
